Laboratory results: ChEMBL document CHEMBL1921749, “5-Lipoxygenase-activating protein (FLAP) inhibitors. Part 4: development of 3-[3-tert-butylsulfanyl-1-[4-(6-ethoxypyridin-3-yl)benzyl]-5-(5-methylpyridin-2-ylmethoxy)-1H-indol-2-yl]-2,2-dimethylpropionic acid (AM803), a potent, oral, once daily FLAP inhibitor” (J Med Chem, 2011)

Tests used:
[1] = target: T1, Arachidonate 5-lipoxygenase-activating protein (Rattus norvegicus, UniProt P20291); assay: Inhibition of FLAP in rat whole blood assessed as inhibition of calcium ionophore A23187-induced LTB4 production preincubated for 15 mins by ELISA; type: tissue-based
T1 sequence (P20291 whole entry): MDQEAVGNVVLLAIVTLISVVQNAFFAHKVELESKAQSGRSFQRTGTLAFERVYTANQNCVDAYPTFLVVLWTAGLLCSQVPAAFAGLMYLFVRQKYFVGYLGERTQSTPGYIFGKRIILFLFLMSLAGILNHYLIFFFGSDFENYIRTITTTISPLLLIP

[2] = target: T1, Arachidonate 5-lipoxygenase-activating protein; assay: Inhibition of FLAP in rat whole blood assessed as inhibition of calcium ionophore A23187-induced LTB4 production preincubated for 4 hrs by ELISA; type: tissue-based
[3] = target: T2, Arachidonate 5-lipoxygenase-activating protein (Homo sapiens, UniProt P20292); assay: Inhibition of FLAP in human whole blood assessed as inhibition of calcium ionophore A23187-induced LTB4 production preincubated for 15 mins by ELISA
T2 sequence (P20292 whole entry): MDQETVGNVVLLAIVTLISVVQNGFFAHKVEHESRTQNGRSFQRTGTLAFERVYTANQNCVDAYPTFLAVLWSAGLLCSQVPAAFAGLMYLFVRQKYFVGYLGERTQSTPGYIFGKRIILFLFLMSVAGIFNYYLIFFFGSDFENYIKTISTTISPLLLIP

[4] = target: T2, Arachidonate 5-lipoxygenase-activating protein; assay: Inhibition of FLAP in human peripheral leukocytes assessed as inhibition of calcium ionophore A23187-induced LTB4 production after 10 mins by ELISA; type: cell-based
[5] = target: Prostaglandin G/H synthase 1 (Homo sapiens, UniProt P23219); assay: Inhibition of COX1-mediated TXB2 production in human whole blood after 30 mins by competitive enzyme immunoassay
Chain of Prostaglandin G/H synthase 1 (P23219 whole entry): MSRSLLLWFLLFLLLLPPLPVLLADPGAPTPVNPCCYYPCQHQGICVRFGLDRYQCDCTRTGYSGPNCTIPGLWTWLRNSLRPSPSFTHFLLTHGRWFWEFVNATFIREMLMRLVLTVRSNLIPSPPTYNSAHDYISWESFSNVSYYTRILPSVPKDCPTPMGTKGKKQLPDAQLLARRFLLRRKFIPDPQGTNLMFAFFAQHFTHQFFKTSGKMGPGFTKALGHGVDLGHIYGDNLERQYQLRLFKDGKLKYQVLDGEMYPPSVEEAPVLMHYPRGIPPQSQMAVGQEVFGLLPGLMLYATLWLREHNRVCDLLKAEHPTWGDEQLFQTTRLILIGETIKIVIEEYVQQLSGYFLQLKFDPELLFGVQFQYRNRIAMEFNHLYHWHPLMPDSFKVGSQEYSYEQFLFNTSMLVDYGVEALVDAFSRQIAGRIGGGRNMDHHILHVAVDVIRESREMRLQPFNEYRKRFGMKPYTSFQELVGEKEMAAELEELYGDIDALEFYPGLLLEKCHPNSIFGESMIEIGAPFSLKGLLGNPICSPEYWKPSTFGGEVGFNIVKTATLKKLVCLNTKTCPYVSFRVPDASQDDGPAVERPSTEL

[6] = target: T2, Arachidonate 5-lipoxygenase-activating protein; assay: Inhibition of FLAP in human peripheral leukocytes assessed as inhibition of calcium ionophore A23187-induced LTB4 production after 10 mins by ELISA in presence of 0.5% human serum albumin; type: cell-based
[7] = target: T2, Arachidonate 5-lipoxygenase-activating protein; assay: Inhibition of FLAP in human peripheral leukocytes assessed as inhibition of calcium ionophore A23187-induced LTB4 production after 3 hr by ELISA in presence of 0.5% human serum albumin; type: cell-based
Cytochrome P450 3A4 = Cytochrome P450 3A4 (Homo sapiens, UniProt P08684); assay: Inhibition of human CYP3A4; type: ADME
Chain of Cytochrome P450 3A4 (P08684 whole entry): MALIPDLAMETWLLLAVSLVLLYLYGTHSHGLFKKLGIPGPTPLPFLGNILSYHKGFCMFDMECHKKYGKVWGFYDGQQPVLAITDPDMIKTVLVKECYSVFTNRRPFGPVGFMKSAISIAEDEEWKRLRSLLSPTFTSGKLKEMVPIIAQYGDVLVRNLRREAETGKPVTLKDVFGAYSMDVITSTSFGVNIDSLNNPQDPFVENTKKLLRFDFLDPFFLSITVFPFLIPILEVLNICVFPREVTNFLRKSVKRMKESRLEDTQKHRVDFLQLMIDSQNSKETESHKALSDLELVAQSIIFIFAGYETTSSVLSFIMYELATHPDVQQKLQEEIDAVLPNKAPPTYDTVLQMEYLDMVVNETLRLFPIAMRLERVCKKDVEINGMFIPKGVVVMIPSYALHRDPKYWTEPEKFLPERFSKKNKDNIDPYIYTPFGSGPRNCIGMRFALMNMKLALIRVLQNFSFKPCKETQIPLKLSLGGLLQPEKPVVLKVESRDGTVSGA

Cytochrome P450 2C9 = Cytochrome P450 2C9 (Homo sapiens, UniProt P11712); assay: Inhibition of human CYP2C9; type: ADME
Chain of Cytochrome P450 2C9 (P11712 whole entry): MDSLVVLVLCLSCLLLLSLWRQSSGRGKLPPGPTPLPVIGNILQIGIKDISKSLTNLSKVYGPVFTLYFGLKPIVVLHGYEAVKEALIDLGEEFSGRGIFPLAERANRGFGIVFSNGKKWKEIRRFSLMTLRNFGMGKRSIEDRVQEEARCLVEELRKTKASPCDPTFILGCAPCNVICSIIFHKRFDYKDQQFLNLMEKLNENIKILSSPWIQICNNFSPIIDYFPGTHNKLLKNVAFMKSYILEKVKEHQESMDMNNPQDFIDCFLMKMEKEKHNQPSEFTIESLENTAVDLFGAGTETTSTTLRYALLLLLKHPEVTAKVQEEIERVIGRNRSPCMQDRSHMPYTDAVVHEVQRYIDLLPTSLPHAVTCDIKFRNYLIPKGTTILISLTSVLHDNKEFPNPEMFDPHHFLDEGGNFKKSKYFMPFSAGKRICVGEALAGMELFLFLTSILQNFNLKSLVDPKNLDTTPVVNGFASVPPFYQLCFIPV

[8] = Volume of distribution in Beagle dog at 2 mg/kg, iv; type: ADME, organism-based, Canis lupus familiaris; design: dose 2 mg/kg, route intravenous; conditions: in vivo
Plasma = assay: Plasma protein binding in dog; type: ADME, cell-free, Canis lupus familiaris
Rattus norvegicus [9] = assay: Antiinflammatory activity in rat assessed as inhibition of calcium ionophore A23187-induced LTB4 production in bronchoalveolar lavage fluid at 3 mg/kg, po administered 16 hrs prior to A23187 challenge; type: functional, Lung; design: scale not given: the % may be the effect or the level left
Rattus norvegicus [10] = assay: Antiinflammatory activity in rat assessed as inhibition of calcium ionophore A23187-induced CysLT production in bronchoalveolar lavage fluid at 3 mg/kg, po administered 16 hrs prior to A23187 challenge; type: functional, Lung; design: scale not given: the % may be the effect or the level left
[11] = Plasma concentration in rat at 3 mg/kg, po after 16 hrs; type: ADME, organism-based; design: dose 3 mg/kg, route oral
[12] = Half life in Beagle dog at 2 mg/kg, iv; type: ADME, organism-based, Canis lupus familiaris; design: dose 2 mg/kg, route intravenous; conditions: in vivo
[13] = target: T3, Leukotriene A-4 hydrolase (Homo sapiens, UniProt P09960); assay: Inhibition of LTA4 […]
T3 sequence (P09960 whole entry): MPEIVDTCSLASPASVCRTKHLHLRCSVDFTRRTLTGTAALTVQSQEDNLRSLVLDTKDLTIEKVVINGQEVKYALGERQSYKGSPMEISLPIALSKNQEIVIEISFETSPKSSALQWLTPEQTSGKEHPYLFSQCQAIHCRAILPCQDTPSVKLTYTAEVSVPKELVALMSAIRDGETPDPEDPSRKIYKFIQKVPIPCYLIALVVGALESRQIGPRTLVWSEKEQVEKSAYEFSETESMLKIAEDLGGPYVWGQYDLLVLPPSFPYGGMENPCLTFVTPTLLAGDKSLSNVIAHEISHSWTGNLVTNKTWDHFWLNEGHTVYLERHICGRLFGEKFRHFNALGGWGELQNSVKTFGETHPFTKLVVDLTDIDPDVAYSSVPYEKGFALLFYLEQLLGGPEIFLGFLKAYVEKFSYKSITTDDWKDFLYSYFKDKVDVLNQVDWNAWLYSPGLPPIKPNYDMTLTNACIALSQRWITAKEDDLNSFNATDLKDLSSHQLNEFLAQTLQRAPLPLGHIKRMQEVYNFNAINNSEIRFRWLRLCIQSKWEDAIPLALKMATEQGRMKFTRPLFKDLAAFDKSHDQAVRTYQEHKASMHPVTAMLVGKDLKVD

[14] = target: T4, Prostaglandin G/H synthase 2 (Homo sapiens, UniProt P35354); assay: Inhibition of COX2-mediated PGE2 production in human whole blood assay
T4 sequence (P35354 whole entry): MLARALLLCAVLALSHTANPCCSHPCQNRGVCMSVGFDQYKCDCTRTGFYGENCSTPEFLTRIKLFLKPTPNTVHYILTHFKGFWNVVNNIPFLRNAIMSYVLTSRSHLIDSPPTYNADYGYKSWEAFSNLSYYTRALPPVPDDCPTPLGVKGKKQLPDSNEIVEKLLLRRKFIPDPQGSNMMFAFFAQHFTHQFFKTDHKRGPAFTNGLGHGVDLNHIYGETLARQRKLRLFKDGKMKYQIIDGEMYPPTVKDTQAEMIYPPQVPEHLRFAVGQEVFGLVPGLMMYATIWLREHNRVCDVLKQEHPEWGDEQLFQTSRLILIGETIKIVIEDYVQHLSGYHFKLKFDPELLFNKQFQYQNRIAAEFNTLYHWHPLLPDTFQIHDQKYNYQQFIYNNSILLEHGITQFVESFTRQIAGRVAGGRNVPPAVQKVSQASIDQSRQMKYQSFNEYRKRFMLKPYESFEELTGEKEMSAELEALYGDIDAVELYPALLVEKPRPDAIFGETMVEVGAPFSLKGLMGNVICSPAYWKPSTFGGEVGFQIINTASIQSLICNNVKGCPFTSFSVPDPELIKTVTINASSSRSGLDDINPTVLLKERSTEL

IC50 [1]: 239 nM
IC50 [2]: 16 nM
IC50 [3]: 506 nM
IC50 [4]: 0.7 nM
IC50 [5]: 58 µM
IC50 [6]: 26 nM
IC50 [7]: 4 nM
IC50 (Cytochrome P450 3A4): > 50 µM
IC50 (Cytochrome P450 2C9): > 50 µM
Vd [8]: 0.2 L/kg
PPB (Plasma): 99.7%
concentration at 16 h [11]: 3 nM
half-life [12]: 780 min
IC50 [13]: > 100 µM
IC50 [14]: > 100 µM
SMILES: CCOc1ccc(-c2ccc(Cn3c(CC(C)(C)C(=O)O)c(SC(C)(C)C)c4cc(OCc5ccc(C)cn5)ccc43)cc2)cn1 [FIBOFLAPON]
Activity (Rattus norvegicus [9]): 86%
Activity (Rattus norvegicus [10]): 41%
